The values below are quoted from earlier work in patent US4978531A, “Clebopride transdermal patch” (Fordonal, S.A., priority 1987, dated 1990).

For this data set the following is noted: in vivo.

Turning to `COc1cc(N)c(Cl)cc1C(=O)NC1CCN(Cc2ccccc2)CC1` [clebopride], the biological half-life entry is listed as “about 1.5 hours”.
